{"source": "patent US12063929B2", "about": "“3′-alkynyl abscisic acid derivatives as ABA antagonists” (University of Saskatchewan, priority 2018, dated 2024)", "key": {"[1]": {"system": "wild and RIL lentil genotypes", "test": "Seed germination in wild and RIL populations of lentil genotypes", "type": "in vivo, lentil (L. orientalis, L. nigricans and others)", "text": "Fifty four lentil genotypes were selected for the experiment based on the existing data on the number of days it takes them to emerge and days to flowering. The seeds of each genotype were scarified before sowing and subjected to 3 treatments. VWR 415 9 cm filter papers were placed inside VWR 100 mm plastic petri dishes. Each petri dish was labeled on both the top and the bottom. Ten seed from each line was place in a labelled petri dish. Each lentil or faba bean genotype was replicated 3 times and subjected to 3 treatments (total number of experimental petri dishes=531). Thus: • 1. ABA exemplary compound solution [10 μM exemplary ABA analog compound 1019 in 1% DMSO, 99% H2O (LL10.1014.1) NaSaH (SL-1-16-1-53)] • 2. No exemplary ABA analogue solution (1% DMSO, 99% H2O) • 3. Distilled water—control\nSeven milliliters of either exemplary ABA analogue solution, solution with no exemplary ABA analogue or distill water (control) was added into the corresponding labelled petri dishes containing the 10 scarified lentil seeds. For faba, bean, 10 ml because of their large seed size. The petri dishes were placed in a dark cupboard. Two digital temperature and humidity loggers (Tinytag) were placed inside the cupboards to monitor environmental conditions.\nGermination was considered for a seed when a tiny radicle at least 5 mm or greater had emerged from the seed. The number of seeds that germinated was counted and recorded at 48 and 96 hours; and at 7 days. Some of the genotypes of interest were photographed (AF-S Micro NIKKOR 60 mm 1:2.8G camera) for comparison purpose. However, an excel sheet showing all results is available. At 48 hours, a total of 22 genotypes and their replicates were selected from the petri dishes treated with exemplary compound and distilled water were transplanted into pots (for faba bean) and trays (for lentils) in order to assess the length of time they took to flower while the rest of the petri dishes were kept till the end of the experiment that lasted a week.\nThe average temperature in the cupboards was 22.5° C. (±0.3) while the relative humidity ranged from 52.4 to 80.7 percent for the duration of the experiment. Studies carried out by Linda Gorim and Devini De. Silva, University of Saskatchewan"}, "[2]": {"system": "Canary seed (CDC Bastia; 2018)", "test": "Canary seed germination assay", "type": "in vivo"}, "Botrytis cinerea": {"system": "Botrytis cinerea", "test": "Pathogenicity test on detached Arabidopsis thaliana leaves", "type": "in vivo"}, "[3]": {"system": "Soybean (AAC Edward; 2018)", "test": "Soybean germination assay", "type": "in vivo", "experimental": "For each treatment 6 replicates of 10 seeds were plated into petri dishes lined with two filter papers and 10 mL of test solution. The covered dishes were stored at room temperature in the dark. Germinated seeds were counted over 24 hours. The following dosages were used when studying the effect of exemplary compounds of the application on soybean germination: control 1% DMSO. 10 μM ABA, 10 μM exemplary compound 1019, 100 um exemplary compound 1019, 10 μM exemplary compound 1019 plus 10 μM ABA and 100 uM exemplary compound 1019 plus 10 μM ABA."}, "Lentil (CDC Maxim)": {"system": "Lentil (CDC Maxim)", "test": "Lentil (CDC Maxim) seed germination assay", "type": "in vivo", "experimental": "40 seeds were counted for each 100×15 mm petri dishes. Each petri dish contained two filter papers and 10 mL of test solutions. Then, they were wrapped with aluminium foil to cut off light. Wrapped plates were kept on lab bench at room temperature. Germinated seeds were counted everyday until one treatment reaches 100% germination (two days). Only light exposure was during plate counting. […]\nAll seeds from this experiment have been rinsed first with tap water and then with dH2O, frozen in liquid nitrogen and stored at −80° C. freezer."}, "rice": {"system": "rice", "test": "Rice radical elongation assay", "type": "in vivo", "details": "10 μM 1019 alone, 4.5 days post treatment (FIG. 11A)", "experimental": "(§1) Seeds were surface sterilized by incubation in 10% bleach for 20 min with shaking, then rinsed four times with sterile water. Four ml of test solutions were pipetted into petri dishes (100×15 mm) that contain a single filter paper. Fifteen seeds were added to each dish. For rice, barely, and wheat, the experiment involved five treatments (5 μM ABA; 5 μM ABA+10 μM 1019; 10 μM 1019; water control; water+EtOH+NaOH control), with three replications per treatment. For sorghum, treatments were 10 μM ABA; 10 μM ABA+20 μM 1019; 20 μM 1019; water control; water+EtOH+NaOH control. Dishes were sealed with Parafilm, and incubated in the dark at room temperature. Radical length was measured daily post emergence using ImageJ software; shown are 3 days post treatment for barley, wheat and sorghum and 4.5 days post treatment for rice."}, "Hard Red Spring wheat": {"system": "Hard Red Spring wheat", "test": "Hard Red Spring wheat seedling growth (root and shoot length)", "type": "in vivo", "experimental": "For each treatment 3 replicates of 10 seeds were plated into petri dishes lined with two filter papers and 10 mL of test solution. The covered dishes were stored at room temperature in the dark. At 72 hours, germinated seeds were scored for root length and shoot length. The following dosages were used when studying the effect of the exemplary ABA analogues of the application on wheat shoot and root growth: control 1% DMSO. 10 μM ABA, 10 μM 1019, 100 μM exemplary compound 1019, 10 μM exemplary compound 1019 plus 10 μM ABA […] and 100 μM exemplary compound 1019 plus 10 μM ABA […]."}, "barley": {"system": "barley", "test": "Barley radical elongation assay", "type": "in vivo", "details": "10 μM 1019 alone, 3.0 days post treatment (FIG. 11B)", "experimental": "as §1"}, "[4]": {"system": "Canola seed (Nutrien PV200)", "test": "Canola seed germination assay", "type": "in vivo", "experimental": "For each treatment 6 replicates of 40 seeds were plated into petri dishes lined with two filter papers and 10 mL of test solution. The covered dishes were stored at room temperature in the dark. Germinated seeds were counted every 2 days for 8 days. The following dosages were used when studying the effect of exemplary compounds on canola germination: control 1% DMSO. 10 μM ABA, 100 μM 1019, and 100 μM 1019 plus 10 μM ABA."}}, "data": [{"compound": "CC1=C(C#Cc2ccccc2)C(=O)CC(C)(C)[C@@]1(O)/C=C/C(C)=C\\C(=O)O", "note": "[Compound 1019, (2Z,4E)-5-((S)-1-Hydroxy-2,6,6-trimethyl-4-oxo-3-(phenylethynyl)cyclohex-2-en-1-yl)-3-methylpenta-2,4-dienoic acid]", "values": [{"measurement": "germination", "setting": "[1]; L. nigricans IG-72551 seeds, at 2 days, 10 μM compound", "result": 100, "unit": "%"}, {"measurement": "germination", "setting": "[1]; L. orientalis IG72770, day 2, 10 μM compound", "result": 40, "unit": "%"}, {"measurement": "germination", "setting": "[1]; L. orientalis IG72770, day 3, 10 μM compound", "result": 75, "unit": "%"}, {"measurement": "germination", "setting": "[1]; L. orientalis IG72770, day 4, 10 μM compound", "result": 100, "unit": "%"}, {"measurement": "germination uniformity between replicates", "setting": "[1]; all genotypes that responded, 10 μM compound", "result": "eliminated the variable germination rates"}, {"measurement": "days to flowering", "setting": "[1]; lentil, transplanted at 48 hours, 10 μM compound", "result": "nor did it significantly affect"}, {"measurement": "number of lentil genotypes that responded positively (improved germination rate)", "setting": "[1]; of 54 lentil genotypes screened, over 4 days, 10 μM compound", "result": 18}, {"measurement": "canary seed germination", "setting": "[2]; 10 μM compound plus 10 μM ABA, day 4", "result": "did not"}, {"measurement": "canary seed germination", "setting": "[2]; 100 μM compound plus 10 μM ABA, day 4", "result": "overcame inhibition"}, {"measurement": "canary seed germination", "setting": "[2]; compound alone, 10 μM or 100 μM", "result": "Neither concentration of exemplary compound 1019 affected germination"}, {"measurement": "disease lesions", "setting": "Botrytis cinerea; 100 μM spray, 24 hours post inoculation (FIG. 14)", "result": "smaller lesions"}, {"measurement": "disease development caused by B. cinerea", "setting": "Botrytis cinerea; 100 μM spray, preliminary results", "result": "partially inhibits"}, {"measurement": "symptom development", "setting": "Botrytis cinerea; plants sprayed with 100 μM, versus mock control", "result": "slower"}, {"measurement": "soybean seed germination", "setting": "[3]; 10 and 100 μM compound in the presence of 10 μM ABA", "result": "overcame the inhibition"}, {"measurement": "soybean seed germination", "setting": "[3]; compound alone at 10 or 100 μM", "result": "did not affect"}, {"measurement": "lentil seed germination, antagonism of ABA", "setting": "Lentil (CDC Maxim); 10 μM ABA plus 10 μM compound (FIG. 6C)", "result": "strongest antagonist"}, {"measurement": "lentil seed germination", "setting": "Lentil (CDC Maxim); 10 μM compound and 10 μM compound plus 10 μM ABA (FIG. 5)", "result": "promoted"}, {"measurement": "lentil seed germination", "setting": "Lentil (CDC Maxim); 100 μM compound plus 10 μM ABA (FIG. 6B)", "result": "overcame the effect"}, {"measurement": "radical length (Least Square mean); radical elongation", "setting": "rice", "result": 1.036}, {"measurement": "root growth", "setting": "Hard Red Spring wheat; 10 μM compound plus 10 μM ABA, 72 h (FIG. 9A)", "result": "restored root growth to close to control length"}, {"measurement": "root growth", "setting": "Hard Red Spring wheat; 100 μM compound alone, 72 h", "result": "not affected"}, {"measurement": "shoot growth", "setting": "Hard Red Spring wheat; 100 μM compound alone, 72 h", "result": "not inhibited"}, {"measurement": "root growth", "setting": "Hard Red Spring wheat; 100 μM compound plus 10 μM ABA, 72 h (FIG. 9A)", "result": "restored root growth to close to control length"}, {"measurement": "shoot growth", "setting": "Hard Red Spring wheat; compound plus 10 μM ABA, 72 h (FIG. 9B)", "result": "restored"}, {"measurement": "radical length (Least Square mean); radical elongation", "setting": "barley", "result": 2.83}, {"measurement": "canola seed germination", "setting": "[4]; 100 μM compound alone, compared to control", "result": "did not significantly affect"}, {"measurement": "canola seed germination", "setting": "[4]; 100 μM compound plus 10 μM ABA", "result": "restored to near control levels"}]}]}
